Legend:
Streptococcus aureus = conditions: Handbook of Medicinal Herbs; cited from earlier work
C. xerosis = assay: Inhibition test: samples applied onto bacterial lawns, growth inhibition zone; type: cell-based, Corynebacterium xerosis
Description: (§1) The Extraction Process: […] The mixture was vortexed for 10 min and the samples were centrifuged for 30 min at 10000 rpm. The supernatant was collected and referred to as the extract. The extract was then filtered through a 0.22 or a 0.45 μm filter. Inhibition Test: The antimicrobial activity of the various extracts was examined by applying samples (5 μl) onto lawns of axillary bacteria. Following incubation of 24 hours at 37° C., inhibition was determined by measuring the diameter of the growth inhibition zone (in cm). In the tables, “+” indicates full growth inhibition(transparent zone), “−” indicates lack of inhibition, and “+/−” indicates partial inhibition (translucent zone). For the purposes of comparative testing, 5 μl aliquots of either red or black henna extracts (20% w/v in 20% v/v ethanol) are applied to the bacterial lawns.

S. epidermidis = assay: as above; type: cell-based; conditions: for inhibition of S. epidermidis (in words): solvents in water, Table III
Description: as §1

oral species = conditions: Didry et al. 1994; cited from earlier work

Structure (SMILES): O=C(O)c1cc(O)c(O)c(O)c1 [gallic acid]
- inhibition of “Streptococcus aureus” (Streptococcus aureus): slightly
- Inhibition of C. xerosis (C. xerosis; 0.2% in ethanol 20%): −
- Inhibition of C. xerosis (C. xerosis; 0.4% in ethanol 20%): −
- Inhibition of S. epidermidis (S. epidermidis; 0.2% in ethanol 20%): −
- Inhibition of S. epidermidis (S. epidermidis; 0.4% in ethanol 20%): +/−

Structure (SMILES): CO [METHANOL, methanol]
- inhibition of C. xerosis (in words) (C. xerosis; above 45%): some inhibition
- Inhibition of C. xerosis (C. xerosis; solvent content 5%): −
- Inhibition of C. xerosis (C. xerosis; solvent content 10%): −
- Inhibition of C. xerosis (C. xerosis; solvent content 15%): −
- Inhibition of C. xerosis (C. xerosis; solvent content 20%): −
- Inhibition of C. xerosis (C. xerosis; solvent content 25%): −
- Inhibition of C. xerosis (C. xerosis; solvent content 30%): −
- Inhibition of C. xerosis (C. xerosis; solvent content 35%): −
- Inhibition of C. xerosis (C. xerosis; solvent content 40%): −
- Inhibition of C. xerosis (C. xerosis; solvent content 45%): +/−
- Inhibition of C. xerosis (C. xerosis; solvent content 50%): +/−
- Inhibition of C. xerosis (C. xerosis; solvent content 55%): +/−
- Inhibition of C. xerosis (C. xerosis; solvent content 60%): +/−
- Inhibition of C. xerosis, zone diameter (C. xerosis; solvent content 60%): 0.8 cm
- Inhibition of C. xerosis (C. xerosis; solvent content 65%): +/−
- Inhibition of C. xerosis, zone diameter (C. xerosis; solvent content 65%): 0.8 cm
- Inhibition of C. xerosis (C. xerosis; solvent content 70%): +/−
- Inhibition of C. xerosis, zone diameter (C. xerosis; solvent content 70%): 0.8 cm
- Inhibition of C. xerosis (C. xerosis; solvent content 75%): +/−
- Inhibition of C. xerosis, zone diameter (C. xerosis; solvent content 75%): 0.8 cm
- Inhibition of C. xerosis (C. xerosis; solvent content 80%): +/−
- Inhibition of C. xerosis, zone diameter (C. xerosis; solvent content 80%): 0.8 cm
- Inhibition of C. xerosis (C. xerosis; solvent content 90%): +/−
- Inhibition of C. xerosis, zone diameter (C. xerosis; solvent content 90%): 0.8 cm
- Inhibition of C. xerosis (C. xerosis; solvent content 100%): +/−
- Inhibition of C. xerosis, zone diameter (C. xerosis; solvent content 100%): 0.8 cm
- Inhibition of S. epidermidis (S. epidermidis; solvent content 5%): −
- Inhibition of S. epidermidis (S. epidermidis; solvent content 10%): −
- Inhibition of S. epidermidis (S. epidermidis; solvent content 15%): −
- Inhibition of S. epidermidis (S. epidermidis; solvent content 20%): −
- Inhibition of S. epidermidis (S. epidermidis; solvent content 25%): −
- Inhibition of S. epidermidis (S. epidermidis; solvent content 30%): −
- Inhibition of S. epidermidis (S. epidermidis; solvent content 35%): −
- Inhibition of S. epidermidis (S. epidermidis; solvent content 40%): −
- Inhibition of S. epidermidis (S. epidermidis; solvent content 45%): −
- Inhibition of S. epidermidis (S. epidermidis; solvent content 50%): −
- Inhibition of S. epidermidis (S. epidermidis; solvent content 55%): −
- Inhibition of S. epidermidis (S. epidermidis; solvent content 60%): −
- Inhibition of S. epidermidis (S. epidermidis; solvent content 65%): −
- Inhibition of S. epidermidis (S. epidermidis; solvent content 70%): −
- Inhibition of S. epidermidis (S. epidermidis; solvent content 75%): −
- Inhibition of S. epidermidis (S. epidermidis; solvent content 80%): −
- Inhibition of S. epidermidis (S. epidermidis; solvent content 90%): −
- Inhibition of S. epidermidis (S. epidermidis; solvent content 100%): −
- inhibition of S. epidermidis (in words) (S. epidermidis): no inhibition

Structure (SMILES): CCO [ETHANOL, ethanol]
- inhibition of C. xerosis (in words) (C. xerosis; above 40% (v/v) in water): some inhibition
- Inhibition of C. xerosis (C. xerosis; solvent content 5%): −
- Inhibition of C. xerosis (C. xerosis; solvent content 10%): −
- Inhibition of C. xerosis (C. xerosis; solvent content 15%): −
- Inhibition of C. xerosis (C. xerosis; solvent content 20%): −
- Inhibition of C. xerosis (C. xerosis; solvent content 25%): −
- Inhibition of C. xerosis (C. xerosis; solvent content 30%): −
- Inhibition of C. xerosis (C. xerosis; solvent content 35%): −
- Inhibition of C. xerosis (C. xerosis; solvent content 40%): +/−
- Inhibition of C. xerosis, zone diameter (C. xerosis; solvent content 40%): 0.2 cm
- Inhibition of C. xerosis (C. xerosis; solvent content 45%): +/−
- Inhibition of C. xerosis, zone diameter (C. xerosis; solvent content 45%): 0.2 cm
- Inhibition of C. xerosis (C. xerosis; solvent content 50%): +/−
- Inhibition of C. xerosis, zone diameter (C. xerosis; solvent content 50%): 0.6 cm
- Inhibition of C. xerosis (C. xerosis; solvent content 55%): +/−
- Inhibition of C. xerosis, zone diameter (C. xerosis; solvent content 55%): 0.6 cm
- Inhibition of C. xerosis (C. xerosis; solvent content 60%): +/−
- Inhibition of C. xerosis, zone diameter (C. xerosis; solvent content 60%): 0.8 cm
- Inhibition of C. xerosis (C. xerosis; solvent content 65%): +/−
- Inhibition of C. xerosis, zone diameter (C. xerosis; solvent content 65%): 0.8 cm
- Inhibition of C. xerosis (C. xerosis; solvent content 70%): +/−
- Inhibition of C. xerosis, zone diameter (C. xerosis; solvent content 70%): 0.8 cm
- Inhibition of C. xerosis (C. xerosis; solvent content 75%): +/−
- Inhibition of C. xerosis, zone diameter (C. xerosis; solvent content 75%): 0.8 cm
- Inhibition of C. xerosis (C. xerosis; solvent content 80%): +/−
- Inhibition of C. xerosis, zone diameter (C. xerosis; solvent content 80%): 0.8 cm
- Inhibition of C. xerosis (C. xerosis; solvent content 90%): +
- Inhibition of C. xerosis, zone diameter (C. xerosis; solvent content 90%): 1.1 cm
- Inhibition of C. xerosis (C. xerosis; solvent content 100%): +
- Inhibition of C. xerosis, zone diameter (C. xerosis; solvent content 100%): 1.3 cm
- Inhibition of S. epidermidis (S. epidermidis; solvent content 5%): −
- Inhibition of S. epidermidis (S. epidermidis; solvent content 10%): −
- Inhibition of S. epidermidis (S. epidermidis; solvent content 15%): −
- Inhibition of S. epidermidis (S. epidermidis; solvent content 20%): −
- Inhibition of S. epidermidis (S. epidermidis; solvent content 25%): −
- Inhibition of S. epidermidis (S. epidermidis; solvent content 30%): −
- Inhibition of S. epidermidis (S. epidermidis; solvent content 35%): −
- Inhibition of S. epidermidis (S. epidermidis; solvent content 40%): −
- Inhibition of S. epidermidis (S. epidermidis; solvent content 45%): −
- Inhibition of S. epidermidis (S. epidermidis; solvent content 50%): −
- Inhibition of S. epidermidis (S. epidermidis; solvent content 55%): −
- Inhibition of S. epidermidis (S. epidermidis; solvent content 60%): −
- Inhibition of S. epidermidis (S. epidermidis; solvent content 65%): −
- Inhibition of S. epidermidis (S. epidermidis; solvent content 70%): −
- Inhibition of S. epidermidis (S. epidermidis; solvent content 75%): −
- Inhibition of S. epidermidis (S. epidermidis; solvent content 80%): −
- Inhibition of S. epidermidis (S. epidermidis; solvent content 90%): −
- Inhibition of S. epidermidis (S. epidermidis; solvent content 100%): −
- inhibition of S. epidermidis (in words) (S. epidermidis): no inhibition

Structure (SMILES): O=C1C=CC(=O)c2ccccc21 [1,4-naphthoquinone]
- Inhibition of C. xerosis (C. xerosis; 0.01% in ethanol 20%): −
- Inhibition of C. xerosis (C. xerosis; 0.02% in ethanol 20%): −
- Inhibition of C. xerosis (C. xerosis; 0.2% in ethanol 20%): +
- Inhibition of C. xerosis, zone diameter (C. xerosis; 0.2% in ethanol 20%): 0.8 cm
- growth inhibition of C. xerosis (in words) (C. xerosis; comment on Table I): inhibits the growth
- Inhibition of S. epidermidis (S. epidermidis; 0.01% in ethanol 20%): −
- Inhibition of S. epidermidis (S. epidermidis; 0.02% in ethanol 20%): −
- Inhibition of S. epidermidis (S. epidermidis; 0.2% in ethanol 20%): +
- Inhibition of S. epidermidis, zone diameter (S. epidermidis; 0.2% in ethanol 20%): 1.4 cm
- growth inhibition of S. epidermidis (in words) (S. epidermidis; comment on Table I): inhibits the growth

Structure (SMILES): O=C1C=C(O)C(=O)c2ccccc21 [lawsone]
- Inhibition of C. xerosis (C. xerosis; 0.01% in ethanol 20%): −
- Inhibition of C. xerosis (C. xerosis; 0.02% in ethanol 20%): −
- Inhibition of C. xerosis (C. xerosis; 0.2% in ethanol 20%): −
- Inhibition of C. xerosis (C. xerosis; 1.0% in ethanol 50%): −
- Inhibition of C. xerosis (C. xerosis; 1.0% in ethanol 100%): −
- Inhibition of C. xerosis (C. xerosis; 1.0% in hot water): −
- antibacterial activity against oral species (oral species): antibacterial activity
- Inhibition of S. epidermidis (S. epidermidis; 0.01% in ethanol 20%): −
- Inhibition of S. epidermidis (S. epidermidis; 0.02% in ethanol 20%): −
- Inhibition of S. epidermidis (S. epidermidis; 0.2% in ethanol 20%): −
- Inhibition of S. epidermidis (S. epidermidis; 1.0% in ethanol 50%): −
- Inhibition of S. epidermidis (S. epidermidis; 1.0% in ethanol 100%): −
- Inhibition of S. epidermidis (S. epidermidis; 1.0% in hot water): −

Source: patent US6548052B2, “Antibacterial deodorizing compositions” (Innoscent Ltd., priority 1997, dated 2003)
